In data set [1] the target is T1, Gcn5 (Homo sapiens, UniProt Q92830). Nature of the data set: Microfluidic mobility shift KAT assay, Gcn5 with FITC-H3. The data set is classed as biochemical. Particulars: for inhibition of Gcn5 in pilot screen: acetyl-CoA 1 μM, unicate, hydroxylamine quench; for detergent sensitivity of Gcn5 inhibition: low (0.01%) compared to high (0.05%) Triton-X.
The target in data set [2] is T1, Gcn5. Briefly: Real-time kinetic monitoring of Gcn5-catalyzed acetylation. The data set is classed as biochemical. Particulars: first 25 min vs last 25 min of 100 min; uninhibited enzyme = 1.
For data set [3], the target named is T2, p300 (Homo sapiens, UniProt Q09472).
T2 sequence (Q09472 1195-1662): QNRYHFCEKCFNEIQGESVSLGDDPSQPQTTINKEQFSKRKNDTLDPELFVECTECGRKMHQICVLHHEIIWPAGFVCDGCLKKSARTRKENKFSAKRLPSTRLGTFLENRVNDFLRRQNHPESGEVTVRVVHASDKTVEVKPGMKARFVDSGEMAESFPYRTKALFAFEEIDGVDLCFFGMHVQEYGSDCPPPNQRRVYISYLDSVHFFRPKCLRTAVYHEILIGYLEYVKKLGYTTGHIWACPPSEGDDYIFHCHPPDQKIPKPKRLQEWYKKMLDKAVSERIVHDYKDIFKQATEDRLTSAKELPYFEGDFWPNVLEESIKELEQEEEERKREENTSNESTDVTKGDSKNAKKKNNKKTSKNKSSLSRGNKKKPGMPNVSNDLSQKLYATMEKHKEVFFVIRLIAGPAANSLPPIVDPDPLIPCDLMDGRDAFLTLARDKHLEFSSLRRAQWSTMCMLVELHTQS
Briefly: Microfluidic mobility shift KAT assay, p300 with FITC-H4. In kind it is biochemical.

Data set [4] has as its system cell viability. Briefly: Cell viability / toxicity. In kind it is cell-based. Particulars: at concentrations of ~60 μM.
Data set [5] relates to HepG2 cells. Nature of the data set: Effect of garcinol on acetylation in HepG2 cells. In kind it is cell-based.

T1 sequence (Q92830 497-662): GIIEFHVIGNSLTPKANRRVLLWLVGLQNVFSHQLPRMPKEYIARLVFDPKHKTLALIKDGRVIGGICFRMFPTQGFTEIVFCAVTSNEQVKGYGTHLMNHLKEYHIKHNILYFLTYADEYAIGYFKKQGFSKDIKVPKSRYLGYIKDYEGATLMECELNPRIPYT

Turning to `CCCCCCCc1ccc(CCc2cccc(O)c2C(=O)O)cc1` [MG-149], the “inhibition of Gcn5 in pilot screen” value in data set [1] (compound 40 μM) is reported as “greater than 40%”.
In the case of `C=C(C)[C@@H](CC=C(C)C)C[C@@]12C[C@@H](CC=C(C)C)C(C)(C)[C@@](CC=C(C)C)(C(=O)C(C(=O)c3ccc(O)c(O)c3)=C1O)C2=O` [garcinol], the “effect on Gcn5 in pilot screen (in words)” value in data set [1] (compound 40 μM) is “did not manifest as a Gcn5 hit”. In addition, the “detergent sensitivity of Gcn5 inhibition” value in data set [1] is “significantly greater inhibitory activity”. For the same compound, in data set [2], the “time dependence value (ratio of acetylation rates at early/late intervals)” value is above 1. Also, the “effect on p300 in pilot screen (in words)” value in data set [3] (compound 40 μM) is “Selective inhibition of p300”. Besides, the “detergent sensitivity of p300 inhibition” value in data set [3] (low (0.01%) compared to high (0.05%) Triton-X) is given as “significantly greater inhibitory activity”. In addition, in data set [4], the toxicity entry is “toxic”. Besides, the “lowest concentration with effects on acetylation” value in data set [5] was ~ 25 μM.
For orientation: inhibition means the share of the control response that was lost under treatment. Turning to `Cc1cc2c(C(C)C)c(O)c(O)c(C=O)c2c(O)c1-c1c(C)cc2c(C(C)C)c(O)c(O)c(C=O)c2c1O` [gossypol], the “detergent sensitivity of Gcn5 inhibition” value in data set [1] is “detergent-sensitive inhibition”. In data set [1] (read-out: inhibition of Gcn5 in pilot screen), the inhibition at 40 µM is above 40%. Also, in data set [2], the “time dependence value (ratio of acetylation rates at early/late intervals)” value is reported as above 1.
As for `CC(=O)N[C@@H](CCCCNC(=O)CSCCNC(=O)CCNC(=O)[C@H](O)C(C)(C)COP(=O)(O)OP(=O)(O)OC[C@H]1O[C@@H](n2cnc3c(N)ncnc32)[C@H](O)[C@@H]1OP(=O)(O)O)C(N)=O` [Lys-CoA], in data set [1] (compound 40 μM), the “inhibition of Gcn5 in pilot screen” value is “greater than 40%”. Besides, the “inhibition of p300 in pilot screen” value in data set [3] (compound 40 μM, acetyl-CoA 1 μM, unicate, hydroxylamine quench) was “greater than 40%”. In data set [3] (compound 40 μM, p300 compared to Gcn5), the “p300 versus Gcn5 selectivity in pilot screen (in words)” value is listed as “inhibited p300 considerably more strongly than Gcn5”.
Consider `O=C1c2c(O)ccc(O)c2C(=O)c2c(NCCNCCO)ccc(NCCNCCO)c21` [mitoxantrone], for which, in data set [3] (compound 40 μM), the “effect on p300 in pilot screen (in words)” value is on record as “selective p300 activation”.

Values taken from article PMC6320249 (ACS chemical biology, 2015).
